In the assay the target is T1, GLP-1 Receptor (Homo sapiens, UniProt P43220).
T1 construct: host or cells: HEK293/GLP1R/CRE-LUC (HEK293/CRE-Luc stably expressing the GLP-1 receptor)
In words: GLP-1R agonist cAMP stimulation assay (HEK293/GLP1R/CRE-LUC cells, Cisbio cAMP dynamic 2 kit).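 Further: compounds tested in half-log serial dilution, cAMP detected with cAMP-d2 and anti-cAMP cryptate antibody reagents after 1 h at room temperature.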 It is filed as cell-based. As to conditions: HEK293/CRE-Luc cell line stably expressing the GLP-1 Receptor; 1000 cells/well; 30 min at 37° C.; 0.5 mM IBMX, 0.1% BSA; read-out: GLP1R cAMP Stimulation DR: EC50.

Molecules are shown by their SMILES. Bounds are passed on as bounds.

T1 sequence (P43220 24-463, species assumed): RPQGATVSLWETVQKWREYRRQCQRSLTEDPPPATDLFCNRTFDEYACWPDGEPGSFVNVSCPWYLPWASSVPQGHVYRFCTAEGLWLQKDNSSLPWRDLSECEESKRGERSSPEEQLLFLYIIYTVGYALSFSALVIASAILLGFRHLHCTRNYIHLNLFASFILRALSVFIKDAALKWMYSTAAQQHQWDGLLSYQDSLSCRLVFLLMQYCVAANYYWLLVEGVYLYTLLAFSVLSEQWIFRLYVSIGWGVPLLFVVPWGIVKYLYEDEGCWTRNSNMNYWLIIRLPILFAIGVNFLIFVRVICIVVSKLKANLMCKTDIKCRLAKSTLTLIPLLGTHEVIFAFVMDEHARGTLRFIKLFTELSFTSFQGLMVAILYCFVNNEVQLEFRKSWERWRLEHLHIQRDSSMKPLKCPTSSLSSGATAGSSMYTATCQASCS

One may read the EC50 as the concentration at which the effect is half-maximal. As for `CC(Nc1ccc(CN2CCC(c3cccc(OCc4ccc(Cl)cc4F)n3)CC2)nc1)C(=O)O` (stereo not shown) [Compound 130, 2-((6-((4-(6-((4-chloro-2-fluorobenzyl)oxy)pyridin-2-yl)piperidin-1-yl)methyl)pyridin-3-yl)amino)propanoic acid], the EC50 is greater than 1000 nM.

In the case of `C/C(=C\c1cnc(CN2CCC(c3cccc4c3OC(c3ccc(Cl)cc3F)O4)CC2)n1C[C@@H]1CCO1)C(=O)O` (stereo partly drawn) [Compound 132a, (E)-3-(2-((4-(2-(4-chloro-2-fluorophenyl)benzo[d][1,3]dioxol-4-yl)piperidin-1-yl)methyl)-1-((S)-oxetan-2-ylmethyl)-1H-imidazol-5-yl)-2-methylacrylic acid], the EC50 was determined as 1.6 nM.

Turning to `C/C(=C\c1cnc(CN2CCC(c3cccc4c3O[C@@H](c3ccc(Cl)cc3)O4)CC2)n1C[C@@H]1CCO1)C(=O)O` [Compound 133a, (E)-3-(2-((4-((S)-2-(4-chlorophenyl)benzo[d][1,3]dioxol-4-yl)piperidin-1-yl)methyl)-1-(((S)-oxetan-2-yl)methyl)-1H-imidazol-5-yl)-2-methylacrylic acid], the EC50 is 5.4 nM. The same measure for `C/C(=C\c1cnc(CN2CCC(c3cccc4c3O[C@H](c3ccc(Cl)cc3)O4)CC2)n1C[C@@H]1CCO1)C(=O)O` [Compound 133b, (E)-3-(2-((4-((R)-2-(4-chlorophenyl)benzo[d][1,3]dioxol-4-yl)piperidin-1-yl)methyl)-1-(((S)-oxetan-2-yl)methyl)-1H-imidazol-5-yl)-2-methylacrylic acid]: 48 nM; for `C/C(=C\c1cnc(CN2CCC(c3cccc4c3O[C@@](C)(c3ccc(Cl)cc3)O4)CC2)n1C[C@@H]1CCO1)C(=O)O` [Compound 134a, (E)-3-(2-((4-((S)-2-(4-chlorophenyl)-2-methylbenzo [d][1,3]dioxol-4-yl)piperidin-1-yl)methyl)-1-(((S)-oxetan-2-yl)methyl)-1H-imidazol-5-yl)-2-methylacrylic acid]: 0.21 nM. As to `C/C(=C\c1cnc(CN2CCC(c3cccc4c3O[C@](C)(c3ccc(Cl)cc3)O4)CC2)n1C[C@@H]1CCO1)C(=O)O` [Compound 134b, (E)-3-(2-((4-((R)-2-(4-chlorophenyl)-2-methylbenzo[d][1,3]dioxol-4-yl)piperidin-1-yl)methyl)-1-(((S)-oxetan-2-yl)methyl)-1H-imidazol-5-yl)-2-methylacrylic acid], the EC50 turned out to be 17 nM. The same measure for `C[C@]1(c2ccc(Cl)cc2F)Oc2cccc(C3CCN(Cc4ncc(/C=C/C(=O)O)n4C[C@@H]4CCO4)CC3)c2O1` [Compound 135a, (E)-3-(2-((4-((S)-2-(4-chloro-2-fluorophenyl)-2-methylbenzo[d][1,3]dioxol-4-yl)piperidin-1-yl)methyl)-1-(((S)-oxetan-2-yl)methyl)-1H-imidazol-5-yl)acrylic acid]: 0.033 nM.

For the compound `C[C@@]1(c2ccc(Cl)cc2F)Oc2cccc(C3CCN(Cc4ncc(/C=C/C(=O)O)n4C[C@@H]4CCO4)CC3)c2O1` [Compound 135b, (E)-3-(2-((4-((R)-2-(4-chloro-2-fluorophenyl)-2-methylbenzo[d][1,3]dioxol-4-yl)piperidin-1-yl)methyl)-1-(((S)-oxetan-2-yl)methyl)-1H-imidazol-5-yl)acrylic acid], the EC50 came to 15 nM. The same measure for `CC1(c2ccc(Cl)cc2F)Oc2cccc(C3CCN(Cc4nnc(/C=C/C(=O)O)n4C[C@@H]4CCO4)CC3)c2O1` (stereo partly drawn) [Compound 136a, (E)-3-(5-((4-(2-(4-chloro-2-fluorophenyl)-2-methylbenzo[d][1,3]dioxol-4-yl)piperidin-1-yl)methyl)-4-(((S)-oxetan-2-yl)methyl)-4H-1,2,4-triazol-3-yl)acrylic acid]: 0.11 nM; for `C/C(=C\c1nnc(CN2CCC(c3cccc4c3OC(C)(c3ccc(Cl)cc3F)O4)CC2)n1C[C@@H]1CCO1)C(=O)O` (stereo partly drawn) [Compound 137a, (E)-3-(5-((4-(2-(4-chloro-2-fluorophenyl)-2-methylbenzo[d][1,3]dioxol-4-yl)piperidin-1-yl)methyl)-4-(((S)-oxetan-2-yl)methyl)-4H-1,2,4-triazol-3-yl)-2-methylacrylic acid]: 0.3 nM.

The values above are taken from patent publication US11897851B2, “Heterocyclic GLP-1 agonists” (Gasherbrum Bio, Inc., priority 2021, dated 2024).
